Laboratory results from patent US20040170581A1, “Cosmetic agents” (priority 2001, published 2004).
Each block holds one molecule with its values, some of them ahead of it.

Key:
[1] = test system: human keratinocytes; experiment: Cell protection against UV-B rays (cellular DNA, LDH release); type: cell-based; settings: UV-B 50 mJ/cm^2, conc. 0.01 % w/v
Procedure: UV-B was selected as the stress factor because the rays produce cutaneous inflammation ([…]) by activating enzymes that release arachidonic acid, such as phospholipase A2 (PLA2) for example. […] The influence of UV-B rays on keratinocytes was determined in vitro through the release of cytoplasmatic enzymes, such as LDH (lactate dehydrogenase) for example, which runs parallel to the cell damage and the formation of PGE2. To carry out the test, a fibroblast culture was mixed with foetal calf serum and inoculated with the test substances 2 days later. After incubation for 36 h at 37° C. and a CO2 level of 5% by vol., the nutrient medium was replaced by an electrolyte solution and the fibroblasts were damaged with a particular dose of UV-B (50 mJ/cm^2). The quantity of keratinocytes was determined after trypsination via a cell counter while the LDH concentration was enzymatically determined.

[2] = test system: superoxide anions O2° produced by lipoxygenase; experiment: Anti-free radical test with superoxide anions produced by lipoxygenase; type: biochemical
Procedure: Activity against free radicals was determined by a biochemical test with a reactive oxygen species (ROS), the so-called superoxide anion (O2°). Superoxide anions come from xanthine oxidase and lipoxygenase activities. Xanthine oxidase (XOD) is an enzyme which is activated during oxidative stress and catalyzes the release of O2° during the degradation of hypoxanthine (HX) which is produced in excess in the event of a disturbance to the energy cell metabolism. O2° is then reacted spontaneously or by superoxide dismutase (SOD) to form hydrogen peroxide (H2O2) which in turn is a source of HO radicals which continue reacting in the Fenton reaction. O2° released during an inflammation process is formed from arachidonic acid by the lipoxygenase activity of leucocytes during the leucotriene synthesis (MacCord, M., Chabot Fletcher, M., Breton, J., Marshall, L.A.; Journal of Investigative Dermatology, 1994, Vol. 102, pp. 980-986; Bouclier, M., Hensby C.N.; Annales de Dermatologie & de V{acute over (en)}reologie, 1986, Vol. 113, pp. 1289-1293).
The enzymatic system arachidonic acidlipoxygenase leads during the synthesis of leucotrienes to the formation of O2° which can be determined by luminescence via luminol. Activity against free radicals is greater, the more the luminescence is suppressed.

[3] = test system: G6PDH (glucose 6 phosphate dehydrogenase); experiment: G6PDH activity on human dermal fibroblasts; type: cell-based; settings: control = 100, 8 assays
Description: This test was used to determine stimulation of the enzyme G6PDH (glucose 6 phosphate dehydrogenase) which counteracts the ageing process of human skin. G6PDH catalyzes the first step of the “pentose shunt” (also known as hexose monophosphate shunt or HMP shunt). The first step, the transformation of glucose-6-phosphate (G6P) into 6-phosphogluconate (6GP) by G6PDH, needs the coenzyme NADP which in turn is converted into NADPH2. This reduced form of the coenzyme catalyzes many enzymatic reactions and also glutathione recycling and lipid synthesis.
Determination of the G6PDH activity (glucose 6 phosphate dehydrogenase) was carried out by the microprocess described by Garidelli de Quincenet in Annual Dermatol. Venereol. 107 (12), 1163-1170 (1980). The DNA content was determined by the method described by Desaulniers in Toxic. In vitro 12 (4), 409-422 (1998) using in vitro cultures of human dermal fibroblasts. […]

Compound: O=C1O[C@H]([C@@H](O)CO)C(O)=C1O [ascorbic acid]
LDH released ([1]; blank with UV-B = 100): 50 %-rel.
Cellular DNA ([1]; blank without UV-B = 100, blank with UV-B = 29): 48 %-rel.

% Inhibition ([2]; concentration 0.00002 % w/v): 16%
% Inhibition ([2]; concentration 0.0002 % w/v): 54%
Compound: O=C(O)/C=C/c1ccc(O)c(O)c1 [Caffeic acid]

Compound: CC1=C(/C=C/C(C)=C/C=C/C(C)=C/C(=O)O)C(C)(C)CCC1 [Retinoic acid]
Level of G6PDH activity on day 6 (%/against control) Average value ([3]; concentration 0.0003 mM): 120 %/against control
Level of G6PDH activity on day 6 (%/against control) Average value ([3]; concentration 0.001 mM): 128 %/against control
